The Ki is the equilibrium dissociation constant of an inhibitor or competing ligand from its target. A higher Ki goes with weaker binding.

Here are results for 17 compounds from patent US8541445B2, “Pyrazolopyridines” (Vertex Pharmaceuticals Incorporated, priority 2009, dated 2013).

Assay type in all cases: biochemical
One assay has as its target PKC theta kinase (Homo sapiens, UniProt Q04759). The assay can be described thus: PKC theta kinase inhibition, coupled-enzyme NADH absorbance assay. The settings on record: 18 nM PKC theta kinase, 240 μM ATP, 30° C. The protocol:
An assay buffer solution was prepared which consisted of 100 mM HEPES (pH 7.5), 10 mM MgCl2, 25 mM NaCl, 0.1 mM EDTA and 0.01% Brij. An enzyme buffer containing reagents to final assay concentrations of 0.00001% Triton X-100, 200 μg/mL Phosphatidylserine, 20 μg/mL Diacylglycerol, 360 μM NADH, 3 mM phosphoenolpyruvate, 70 μg/mL pyruvate kinase, 24 μg/mL lactate dehydrogenase, 2 mM DTT, 100 μM substrate peptide (ERMRPRKRQGSVRRRV SEQ ID NO. 1) and 18 nM PKC theta kinase was prepared in assay buffer. To 60 μL of this enzyme buffer, in a 384 well plate, was added 2 μL of VRT stock solution in DMSO. The mixture was allowed to equilibrate for 10 mins at 30° C. The enzyme reaction was initiated by the addition of 5 μL stock ATP solution prepared in assay buffer to a final assay concentration of 240 μM. Initial rate data was determined from the rate of change of absorbance at 340 nm (corresponding to stoichiometric consumption of NADH) using a Molecular Devices Spectramax plate reader (Sunnyvale, Calif.) over 15 mins at 30° C. For each Ki determination 12 data points covering the VRT concentration range of 0-20 μM were obtained in duplicate (DMSO stocks were prepared from an initial 10 mM VRT stock with subsequent 1:2 serial dilutions). Ki values were calculated from initial rate data by non-linear regression using the Prism software package (Prism 4.0a, Graphpad Software, San Diego, Calif.).

In the next assay the target is PKC delta kinase (Homo sapiens, UniProt Q05655). Put plainly: PKC delta kinase inhibition, coupled-enzyme NADH absorbance assay. The settings on record: 46 nM PKC delta kinase, 150 μM ATP, 30° C. The protocol: An assay buffer solution was prepared which consisted of 100 mM HEPES (pH 7.5), 10 mM MgCl2, 25 mM NaCl, 0.1 mM EDTA and 0.01% Brij. An enzyme buffer containing reagents to final assay concentrations of 0.002% Triton X-100, 200 μg/mL Phosphatidylserine, 20 μg/mL Diacylglycerol, 360 μM NADH, 3 mM phosphoenolpyruvate, 70 μg/mL pyruvate kinase, 24 μg/mL lactate dehydrogenase, 2 mM DTT, 150 μM substrate peptide (ERMRPRKRQGSVRRRV SEQ ID NO. 2) and 46 nM PKC delta kinase was prepared in assay buffer. To 16 μL of this enzyme buffer, in a 384 well plate, was added 1 μL of VRT stock solution in DMSO. The mixture was allowed to equilibrate for 10 mins at 30° C. The enzyme reaction was initiated by the addition of 16 μL stock ATP solution prepared in assay buffer to a final assay concentration of 150 μM. Initial rate data was determined from the rate of change of absorbance at 340 nm (corresponding to stoichiometric consumption of NADH) using a Molecular Devices Spectramax plate reader (Sunnyvale, Calif.) over 15 mins at 30° C. For each Ki determination 12 data points covering the VRT concentration range of 0-20 μM were obtained in duplicate (DMSO stocks were prepared from an initial 10 mM VRT stock with subsequent 1:2 serial dilutions). Ki values were calculated from initial rate data by non-linear regression using the Prism software package (Prism 4.0a, Graphpad Software, San Diego, Calif.).
PKC delta kinase, sequence (Q05655 whole entry): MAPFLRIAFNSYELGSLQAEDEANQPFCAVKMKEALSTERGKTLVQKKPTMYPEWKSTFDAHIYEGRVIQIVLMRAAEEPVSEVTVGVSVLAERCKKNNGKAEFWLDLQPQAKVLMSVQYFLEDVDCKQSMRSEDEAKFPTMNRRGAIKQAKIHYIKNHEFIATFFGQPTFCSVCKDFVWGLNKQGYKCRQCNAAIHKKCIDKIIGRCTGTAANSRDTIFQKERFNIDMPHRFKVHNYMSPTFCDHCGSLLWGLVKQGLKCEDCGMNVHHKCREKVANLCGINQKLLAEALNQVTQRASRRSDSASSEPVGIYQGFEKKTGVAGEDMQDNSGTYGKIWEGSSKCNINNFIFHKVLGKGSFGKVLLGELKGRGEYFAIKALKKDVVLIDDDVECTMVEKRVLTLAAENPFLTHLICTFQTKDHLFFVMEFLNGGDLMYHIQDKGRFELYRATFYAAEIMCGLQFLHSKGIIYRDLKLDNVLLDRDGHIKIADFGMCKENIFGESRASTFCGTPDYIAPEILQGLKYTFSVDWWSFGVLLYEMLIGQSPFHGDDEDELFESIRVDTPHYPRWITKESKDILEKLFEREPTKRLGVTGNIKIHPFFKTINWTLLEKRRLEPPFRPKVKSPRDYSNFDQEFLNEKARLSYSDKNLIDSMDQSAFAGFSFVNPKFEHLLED

Another assay deals with PKC alpha kinase (Homo sapiens, UniProt P17252). Put plainly: PKC alpha kinase inhibition, coupled-enzyme NADH absorbance assay. The settings on record: 4.5 nM PKC alpha kinase, 130 μM ATP, 100 μM CaCl2, 30° C. The protocol: An assay buffer solution was prepared which consisted of 100 mM HEPES (pH 7.5), 10 mM MgCl2, 25 mM NaCl, 0.1 mM EDTA, 100 μM CaCl2 and 0.01% Brij. An enzyme buffer containing reagents to final assay concentrations of 0.002% Triton X-100, 100 μg/mL Phosphatidylserine, 20 μg/mL Diacylglycerol, 360 μM NADH, 3 mM phosphoenolpyruvate, […], 24 μg/mL lactate dehydrogenase, 2 mM DTT, 150 μM substrate peptide (RRRRRKGSFKRKA SEQ ID NO. 3) and 4.5 nM PKC alpha kinase was prepared in assay buffer. To 16 μL of this enzyme buffer, in a 384 well plate, was added 1 μL of VRT stock solution in DMSO. The mixture was allowed to equilibrate for 10 mins at 30° C. The enzyme reaction was initiated by the addition of 16 μL stock ATP solution prepared in assay buffer to a final assay concentration of 130 μM. Initial rate data was determined from the rate of change of absorbance at 340 nm (corresponding to stoichiometric consumption of NADH) using a Molecular Devices Spectramax plate reader (Sunnyvale, Calif.) over 15 mins at 30° C. For each Ki determination 12 data points covering the VRT concentration range of 0-20 μM were obtained in duplicate (DMSO stocks were prepared from an initial 10 mM VRT stock with subsequent 1:2 serial dilutions). Ki values were calculated from initial rate data by non-linear regression using the Prism software package (Prism 4.0a, Graphpad Software, San Diego, Calif.).

PKC theta kinase, sequence (Q04759 whole entry): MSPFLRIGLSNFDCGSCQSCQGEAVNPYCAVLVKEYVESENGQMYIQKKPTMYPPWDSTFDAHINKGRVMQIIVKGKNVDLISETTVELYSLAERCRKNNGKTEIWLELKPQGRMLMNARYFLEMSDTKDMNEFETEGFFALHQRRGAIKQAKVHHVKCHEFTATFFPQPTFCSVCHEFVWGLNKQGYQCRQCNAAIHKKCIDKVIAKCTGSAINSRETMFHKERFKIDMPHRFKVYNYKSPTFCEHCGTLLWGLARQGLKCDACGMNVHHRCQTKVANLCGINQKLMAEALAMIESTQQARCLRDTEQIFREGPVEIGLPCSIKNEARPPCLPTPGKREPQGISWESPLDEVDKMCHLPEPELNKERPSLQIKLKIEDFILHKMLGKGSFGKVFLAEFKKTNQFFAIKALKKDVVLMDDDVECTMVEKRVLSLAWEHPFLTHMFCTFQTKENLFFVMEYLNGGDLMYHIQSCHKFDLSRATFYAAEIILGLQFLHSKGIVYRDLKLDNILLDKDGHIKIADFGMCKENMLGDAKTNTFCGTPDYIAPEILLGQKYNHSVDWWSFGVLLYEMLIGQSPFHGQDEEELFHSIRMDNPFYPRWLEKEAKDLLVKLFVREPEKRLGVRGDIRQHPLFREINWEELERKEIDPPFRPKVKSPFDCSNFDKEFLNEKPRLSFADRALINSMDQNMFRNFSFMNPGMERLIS

Turning to `CCC(C)(C#N)c1csc(-c2ccnc3[nH]nc(Cl)c23)n1` (stereo not drawn) [Compound 8], the Ki on PKC theta kinase was less than 50 nM; on PKC delta kinase it was less than 500 nM; on PKC alpha kinase, less than 2800 nM.
The corresponding values for `CC(C)(C#N)c1csc(-c2ccnc3[nH]ncc23)n1` [Compound 2, 2-(2-(1H-pyrazolo[3,4-b]pyridin-4-yl)thiazol-4-yl)-2-methyl propanenitrile] are less than 50 nM, less than 500 nM and less than 2800 nM.
The like results for `CCC(C)(CN)c1ccsc1-c1ccnc2[nH]ncc12` (stereo not drawn) [Compound 14] were, in that order, less than 500 nM, more than 2000 nM and more than 1250 nM.
The like results for `NCCn1cc(-c2ccnc3[nH]ncc23)cn1` [Compound 16] were, in that order, less than 500 nM, less than 2800 nM and more than 1250 nM.
Consider `CCC(C)(CN)c1csc(-c2ccnc3[nH]ncc23)n1` (stereo not drawn) [Compound 10], for which the Ki on PKC theta kinase is less than 50 nM; at PKC delta kinase, less than 500 nM; at PKC alpha kinase, less than 2800 nM.
Regarding `CCC(C)(C#N)c1csc(-c2ccnc3[nH]ncc23)n1` (stereo not drawn) [Compound 6], the Ki is less than 50 nM on PKC theta kinase, less than 500 nM at PKC delta kinase and less than 2800 nM at PKC alpha kinase.
For the compound `CCC(C#N)n1cc(-c2ccnc3[nH]ncc23)cn1` (stereo not drawn) [Compound 15, 2-(4-(1H-pyrazolo[3,4-b]pyridin-4-yl)-1H-pyrazol-1-yl)butanenitrile], the figures for the Ki on PKC theta kinase, on PKC delta kinase and at PKC alpha kinase were less than 500 nM, less than 2800 nM and more than 1250 nM, respectively.
In the case of `Cc1sc(-c2ccnc3[nH]ncc23)nc1C(C)(C)CN` [Compound 4, 2-methyl-2-(5-methyl-2-(1H-pyrazolo[3,4-b]pyridin-4-yl)thiazol-4-yl)propan-1-amine], the inhibitory constant (Ki) is less than 500 nM at PKC theta kinase, less than 500 nM on PKC delta kinase and less than 2800 nM on PKC alpha kinase.
Turning to `CCC(CN)n1cc(-c2ccnc3[nH]ncc23)cn1` (stereo not drawn) [Compound 17, 2-(4-(1H-pyrazolo[3,4-b]pyridin-4-yl)-1H-pyrazol-1-yl)butan-1-amine], the Ki on PKC theta kinase was less than 2800 nM; at PKC delta kinase, less than 2800 nM; on PKC alpha kinase it was more than 1250 nM.
As to `CC1(CN)CCCc2sc(-c3ccnc4[nH]ncc34)nc21` (stereo not drawn) [Compound 12, (4-methyl-2-(1H-pyrazolo[3,4-b]pyridin-4-yl)-4,5,6,7-tetrahydrobenzo[d]thiazol-4-yl)methanamine], the Ki at PKC theta kinase is less than 500 nM; at PKC delta kinase, less than 2800 nM; on PKC alpha kinase, more than 1250 nM.
Consider `CCC(C)(CN)c1csc(-c2ccnc3[nH]nc(Cl)c23)n1` (stereo not drawn) [Compound 11], for which the Ki at PKC theta kinase is less than 50 nM; at PKC delta kinase it was less than 50 nM; on PKC alpha kinase it was less than 500 nM.
Turning to `N#CCc1csc(-c2ccnc3[nH]ncc23)n1` [Compound 1, 2-(2-(1H-pyrazolo[3,4-b]pyridin-4-yl)thiazol-4-yl)ethanenitrile], the Ki on PKC theta kinase is less than 500 nM; at PKC delta kinase, less than 2800 nM; on PKC alpha kinase, more than 1250 nM.
Turning to `CCC(C#N)c1csc(-c2ccnc3[nH]ncc23)n1` (stereo not drawn) [Compound 5], the results for the inhibition constant (Ki) at PKC theta kinase, on PKC delta kinase and at PKC alpha kinase were less than 50 nM, less than 500 nM and less than 500 nM, respectively.
For the compound `CCC(C)(CN)c1csc(-c2ccnc3[nH]ncc23)c1` (stereo not drawn) [Compound 13, 2-(5-(1H-pyrazolo[3,4-b]pyridin-4-yl)thiophen-3-yl)-2-methylbutan-1-amine], the Ki on PKC theta kinase was less than 50 nM; on PKC delta kinase, less than 500 nM; at PKC alpha kinase it was less than 500 nM.
In the case of `CC(C)(CN)c1csc(-c2ccnc3[nH]ncc23)n1` [Compound 3, 2-(2-(1H-pyrazolo[3,4-b]pyridin-4-yl)thiazol-4-yl)-2-methylpropan-1-amine], the values for the Ki on PKC theta kinase, at PKC delta kinase and on PKC alpha kinase were less than 50 nM, less than 500 nM and less than 2800 nM, respectively.
Turning to `CCC(C#N)(CC)c1csc(-c2ccnc3[nH]ncc23)n1` [Compound 7], the inhibition constant (Ki) on PKC theta kinase is less than 50 nM; at PKC delta kinase, less than 500 nM; on PKC alpha kinase, less than 500 nM.
As to `CCC(CN)c1csc(-c2ccnc3[nH]ncc23)n1` (stereo not drawn) [Compound 9], the Ki is less than 50 nM on PKC theta kinase, less than 500 nM on PKC delta kinase and more than 1250 nM at PKC alpha kinase.
